Experimental data as given in patent publication US20210040134A1, “COMBINATIONS OF MACROLIDE COMPOUNDS AND IMMUNE CHECKPOINT INHIBITORS” (ISR IMMUNE SYSTEM REGULATION HOLDING AB (PUBL), priority 2018, published 2021).

Key:
human TLR2 = target: T1, human TLR2 (Homo sapiens, UniProt O60603); assay: TLR2 reporter assay (HEK-293-TLR, SEAP); type: cell-based; details: concentrations up to 20 uM
T1 construct: host or cells: recombinant HEK-293-TLR cell lines
Protocol: Samples and controls were tested in duplicate on recombinant HEK-293-TLR cell lines using a cell reporter assay at Invivogen using their standard assay conditions. These cell lines functionally over-express human TLR2 protein as well as a reporter gene which is a secreted alkaline phosphatase (SEAP). The production of this reporter gene is driven by an NFkB inducible promoter. The TLR reporter cell lines activation results are given as optical density values (OD).
20 μl of each test article were used to stimulate the hTLR2 reporter cell lines in a 200 μl of final reaction volume. Samples were tested in duplicate, with at least two concentrations tested—20 uM and 10 uM.
Compounds were tested using a TLR2 reporter assay (see general methods) that measured for stimulation of the TLR2 receptor. Stimulatory effect was measured as an increase in optical density (OD) due to release of secreted alkaline phosphatase (SEAP) and is shown in table 4: […]

[1] = tested on: E. coli, S. salivarius, L. casei, B. longum, M. luteus; assay: MIC assay, summary over all bacterial strains tested; type: cell-based; details: any of the strains tested
Protocol: The bioactivity of macrolide compounds against 4 strains of common gut bacteria (Escherichia coli, Streptococcus salivarius subsp. salivarius, Lactobacillus casei and Bifidobacterium longum subsp. infantis) and common mammalian skin isolate Micrococcus luteus, was assessed using the Minimum Inhibitory Concentration (MIC) assay. Bacterial strains were purchased from DSMZ (Brunswick, Germany) except M. luteus which was obtained from NCIMB, and stored in 20% glycerol at −80° C. Stock solutions (100% DMSO) of positive controls (azithromycin and erythromycin), and of test compounds 1 and 2 were diluted in broth to working stock concentrations of 256 μg/ml (final assay testing concentration range 128 μg/ml to 0.00391 μg/ml). Stock solutions of all other compounds were diluted in broth to working stock concentrations of 128 μg/ml (final assay testing concentration range 64 μg/ml to 0.00195 μg/ml). Bacterial strains were cultivated in appropriate broth in an anaerobic chamber at 37° C., except for M. luteus which was incubated aerobically at 37° C. 18 h cultures were diluted in broth to an OD595 of 0.1 and then further diluted 1:10. In 96-well plates, in duplicate, 200 μl working stock of test compound was transferred to well 1 and serially diluted (1:2) in broth. 100 μl bacterial suspension was aliquoted into each well and mixed thoroughly. Appropriate sterility controls were included and plates were incubated in an anaerobic chamber, or aerobically (M. luteus) at 37° C. for 18 h. The MIC was determined to be the concentration of test compound in the first well with no visible growth.

[2] = Human microsome stability assay; type: in vitro ADME; details: pH 7.4, human liver microsomes, read-out: T½
Protocol: Rate of metabolism in microsomes was tested as follows:
Human liver microsomes were diluted with buffer C (0.1 M Potassium Phosphate buffer, 1.0 mM EDTA, pH 7.4) to a concentration of […]. Microsomal stability studies were carried out by adding 30 μL of 1.5 μM compound spiking solution to wells (1.5 μL of 500 μM spiking solution (10 μL of 10 mM DMSO stock solution into 190 μL ACN to eventually generate final test concentration of 1 uM) and 18.75 μL of 20 mg/mL liver microsomes into 479.75 μL of Buffer C). All samples were pre-incubated for approximately 15 minutes at 37° C. Following this, the reaction was initiated by adding 15 μL of the NADPH solution (6 mM) with gentle mixing. Aliquots (40 μL) were removed at 0, 5, 15, 30 and 45 minutes and quenched with ACN containing internal standard (135 μL). Protein was removed by centrifugation (4000 rpm, 15 min) and the sample plate analysed for compound concentration by LC-MS/MS. Half-lives were then calculated by standard methods, comparing the concentration of analyte with the amount originally present.
The metabolic stability of the compounds of the invention was assessed in a standard human microsome stability assay (see general methods).

[3] = Caco-2 bidirectional permeability assay; type: in vitro ADME; details: human, Caco-2; B to A permeability divided by A to B permeability
Protocol: (§1) 10 μM Test article was added to the apical (A) surface of Caco-2 cell monolayers (in HBSS buffer with 0.3% DMSO and 5 μM LY at 37 degrees C.) and compound permeation into the basolateral (B) compartment measured following 90 minutes incubation. This was also performed in the reverse direction (basolateral to apical) to investigate active transport. LC-MS/MS is used to quantify levels of both the test and standard control compounds. Efflux ratio was calculated by dividing the B to A permeability by the A to B permeability.
(§2) Drug permeability:Papp=(VA/(Area×time))×([drug]accepter/(([drug]initial,donor)×Dilution Factor)
(§3) The permeability of the compounds of the invention was assessed in a standard caco-2 bidirectional permeability assay (see general methods).

Caco-2 cell monolayers = assay: Caco-2 bidirectional permeability assay; type: in vitro ADME; details: Caco-2, 10 μM test article, 90 minutes
Protocol: as §1, §2, §3

T1 sequence (O60603 21-784): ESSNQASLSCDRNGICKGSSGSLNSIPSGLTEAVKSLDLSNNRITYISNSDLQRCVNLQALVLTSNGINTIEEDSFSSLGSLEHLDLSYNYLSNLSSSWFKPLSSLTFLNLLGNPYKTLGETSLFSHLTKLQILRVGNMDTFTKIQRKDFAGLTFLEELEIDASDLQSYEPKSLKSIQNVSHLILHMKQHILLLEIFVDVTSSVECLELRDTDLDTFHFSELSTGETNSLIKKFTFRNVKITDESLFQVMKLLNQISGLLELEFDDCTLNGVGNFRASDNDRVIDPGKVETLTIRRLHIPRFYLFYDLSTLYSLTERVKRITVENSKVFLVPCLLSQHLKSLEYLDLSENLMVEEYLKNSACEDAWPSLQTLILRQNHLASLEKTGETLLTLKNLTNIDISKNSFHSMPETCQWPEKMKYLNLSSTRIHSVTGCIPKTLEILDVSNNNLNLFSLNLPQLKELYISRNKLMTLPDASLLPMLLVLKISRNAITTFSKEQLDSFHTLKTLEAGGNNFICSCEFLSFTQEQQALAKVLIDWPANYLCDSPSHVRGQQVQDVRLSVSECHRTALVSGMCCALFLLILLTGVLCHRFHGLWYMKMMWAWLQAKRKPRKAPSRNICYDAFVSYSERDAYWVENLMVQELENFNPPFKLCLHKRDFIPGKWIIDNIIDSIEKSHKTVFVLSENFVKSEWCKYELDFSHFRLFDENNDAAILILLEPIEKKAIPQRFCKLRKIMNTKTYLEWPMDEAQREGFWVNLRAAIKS

CC[C@H]1OC(=O)[C@H](C)[C@@H](O[C@H]2CC(N(C)C)[C@H](O)C(C)O2)[C@H](C)[C@@H](O)[C@](C)(O)C[C@@H](C)N(C)C[C@H](C)[C@@H](O)[C@]1(C)O (some centres unmarked) [Compound 17]
TLR2 stimulation (in words) (human TLR2): stimulated TLR2 at concentrations down to 10 uM

CC[C@H]1OC(=O)[C@H](C)[C@@H](O[C@H]2CC(N(C)C)[C@H](O)C(C)O2)[C@H](C)[C@@H](O)[C@](C)(O)C[C@@H](C)C(O)[C@H](C)[C@@H](O)[C@H]1C (some centres unmarked) [Compound 7]
antibacterial activity against the bacterial strains tested (in words) [1]: no antibacterial activity | half-life at 1 uM [2]: 0.933 h

CC[C@H]1OC(=O)[C@H](C)[C@@H](O[C@H]2C[C@@](C)(OC)[C@@H](O)[C@H](C)O2)[C@H](C)[C@@H](O[C@@H]2O[C@H](C)C[C@H](N(C)C)[C@H]2O)[C@](C)(O)C[C@@H](C)C(=O)[C@H](C)[C@@H](O)[C@]1(C)O [Erythromycin, reference compound]
antibacterial activity against the bacterial strains tested (in words) [1]: potent activity | TLR2 stimulation (in words) (human TLR2): little or no stimulation | half-life at 1 uM [2]: 0.517 h

CC[C@H]1OC(=O)[C@H](C)[C@@H](O[C@H]2CC(N(C)C)[C@H](O)C(C)O2)[C@H](C)[C@@H](O)[C@](C)(O)C[C@@H](C)C(=O)[C@H](C)[C@@H](O)[C@H]1C (some centres unmarked) [Compound 3]
antibacterial activity against the bacterial strains tested (in words) [1]: no antibacterial activity | TLR2 stimulation (in words) (human TLR2): little or no stimulation

CC(O)[C@H]1OC(=O)[C@H](C)[C@@H](O[C@H]2C[C@@H](N(C)C)[C@H](O)[C@@H](C)O2)[C@H](C)[C@@H](O)[C@](C)(O)C[C@@H](C)C(=O)[C@H](C)[C@@H](O)[C@H]1C (some centres unmarked) [Compound 9, 14-hydroxy angolosamine erythronolide B]
antibacterial activity against the bacterial strains tested (in words) [1]: no antibacterial activity | half-life at 1 uM [2]: 1.67 h

CC[C@H]1OC(=O)[C@H](C)[C@@H](O[C@H]2C[C@@](C)(OC)[C@@H](O)[C@H](C)O2)[C@H](C)[C@@H](O[C@@H]2O[C@H](C)C[C@H](N(C)C)[C@H]2O)[C@](C)(O)C[C@@H](C)CN(C)[C@H](C)[C@@H](O)[C@]1(C)O [Azithromycin, reference compound]
efflux ratio at 90 minutes, 10 μM [3]: > 78 | Papp (Caco-2 cell monolayers): <0.14 × 10^6/cm · s^−1 | antibacterial activity against the bacterial strains tested (in words) [1]: potent activity | TLR2 stimulation (in words) (human TLR2): little or no stimulation | half-life at 1 uM [2]: 4.08 h

CC[C@H]1OC(=O)[C@H](C)[C@@H](O[C@H]2CC(N(C)C)[C@H](O)C(C)O2)[C@H](C)[C@@H](O)[C@](C)(O)C[C@@H](C)CN(C)[C@H](C)[C@@H](O)[C@H]1C (some centres unmarked) [Compound 4]
antibacterial activity against the bacterial strains tested (in words) [1]: no antibacterial activity

CC[C@H]1OC(=O)[C@H](C)[C@@H](O[C@H]2CC(NC)[C@H](O)C(C)O2)[C@H](C)[C@@H](O)[C@](C)(O)C[C@@H](C)C(=O)[C@H](C)[C@@H](O)[C@H]1C (some centres unmarked) [Compound 6]
antibacterial activity against the bacterial strains tested (in words) [1]: no antibacterial activity | half-life at 1 uM [2]: 1.82 h

CC1O[C@@H](O[C@H]2[C@H](C)[C@@H](O)[C@](C)(O)C[C@@H](C)C(=O)[C@H](C)[C@@H](O)[C@@H](C)[C@@H](C)OC(=O)[C@@H]2C)CC(N(C)C)[C@@H]1O (some centres unmarked) [Compound 8]
antibacterial activity against the bacterial strains tested (in words) [1]: no antibacterial activity

CC1O[C@@H](O[C@H]2[C@H](C)[C@@H](O)[C@](C)(O)C[C@@H](C)C(=O)[C@H](C)[C@@H](O)[C@@H](C)[C@@H](C3CCC3)OC(=O)[C@@H]2C)CC(N(C)C)[C@@H]1O (some centres unmarked) [Compound 5]
antibacterial activity against the bacterial strains tested (in words) [1]: no antibacterial activity
